In patent US9340590B2 (priority 2011, dated 2016):
Positions of bridges follow the written chain, without caps; N, C: chain ends. Non-standard residues stand in square brackets, D forms with d. Residues, ends and D or L forms follow the SMILES beside them. Phe(3,4-(OMe)2) = COc1ccc(C[C@H](N)C(=O)O)cc1OC; hCit = NC(=O)NCCCC[C@H](N)C(=O)O; 2Pal = N[C@@H](Cc1ccccn1)C(=O)O; Abu = CC[C@H](N)C(=O)O

Assays:
hNav1.7 = hNav1.7 (Homo sapiens, UniProt Q15858); assay: cell-based; conditions: Nav1.7 Use IC50
hNav1.5 = hNav1.5 (Homo sapiens, UniProt Q14524); assay: cell-based
hNav1.5, sequence (Q14524 whole entry, looked up): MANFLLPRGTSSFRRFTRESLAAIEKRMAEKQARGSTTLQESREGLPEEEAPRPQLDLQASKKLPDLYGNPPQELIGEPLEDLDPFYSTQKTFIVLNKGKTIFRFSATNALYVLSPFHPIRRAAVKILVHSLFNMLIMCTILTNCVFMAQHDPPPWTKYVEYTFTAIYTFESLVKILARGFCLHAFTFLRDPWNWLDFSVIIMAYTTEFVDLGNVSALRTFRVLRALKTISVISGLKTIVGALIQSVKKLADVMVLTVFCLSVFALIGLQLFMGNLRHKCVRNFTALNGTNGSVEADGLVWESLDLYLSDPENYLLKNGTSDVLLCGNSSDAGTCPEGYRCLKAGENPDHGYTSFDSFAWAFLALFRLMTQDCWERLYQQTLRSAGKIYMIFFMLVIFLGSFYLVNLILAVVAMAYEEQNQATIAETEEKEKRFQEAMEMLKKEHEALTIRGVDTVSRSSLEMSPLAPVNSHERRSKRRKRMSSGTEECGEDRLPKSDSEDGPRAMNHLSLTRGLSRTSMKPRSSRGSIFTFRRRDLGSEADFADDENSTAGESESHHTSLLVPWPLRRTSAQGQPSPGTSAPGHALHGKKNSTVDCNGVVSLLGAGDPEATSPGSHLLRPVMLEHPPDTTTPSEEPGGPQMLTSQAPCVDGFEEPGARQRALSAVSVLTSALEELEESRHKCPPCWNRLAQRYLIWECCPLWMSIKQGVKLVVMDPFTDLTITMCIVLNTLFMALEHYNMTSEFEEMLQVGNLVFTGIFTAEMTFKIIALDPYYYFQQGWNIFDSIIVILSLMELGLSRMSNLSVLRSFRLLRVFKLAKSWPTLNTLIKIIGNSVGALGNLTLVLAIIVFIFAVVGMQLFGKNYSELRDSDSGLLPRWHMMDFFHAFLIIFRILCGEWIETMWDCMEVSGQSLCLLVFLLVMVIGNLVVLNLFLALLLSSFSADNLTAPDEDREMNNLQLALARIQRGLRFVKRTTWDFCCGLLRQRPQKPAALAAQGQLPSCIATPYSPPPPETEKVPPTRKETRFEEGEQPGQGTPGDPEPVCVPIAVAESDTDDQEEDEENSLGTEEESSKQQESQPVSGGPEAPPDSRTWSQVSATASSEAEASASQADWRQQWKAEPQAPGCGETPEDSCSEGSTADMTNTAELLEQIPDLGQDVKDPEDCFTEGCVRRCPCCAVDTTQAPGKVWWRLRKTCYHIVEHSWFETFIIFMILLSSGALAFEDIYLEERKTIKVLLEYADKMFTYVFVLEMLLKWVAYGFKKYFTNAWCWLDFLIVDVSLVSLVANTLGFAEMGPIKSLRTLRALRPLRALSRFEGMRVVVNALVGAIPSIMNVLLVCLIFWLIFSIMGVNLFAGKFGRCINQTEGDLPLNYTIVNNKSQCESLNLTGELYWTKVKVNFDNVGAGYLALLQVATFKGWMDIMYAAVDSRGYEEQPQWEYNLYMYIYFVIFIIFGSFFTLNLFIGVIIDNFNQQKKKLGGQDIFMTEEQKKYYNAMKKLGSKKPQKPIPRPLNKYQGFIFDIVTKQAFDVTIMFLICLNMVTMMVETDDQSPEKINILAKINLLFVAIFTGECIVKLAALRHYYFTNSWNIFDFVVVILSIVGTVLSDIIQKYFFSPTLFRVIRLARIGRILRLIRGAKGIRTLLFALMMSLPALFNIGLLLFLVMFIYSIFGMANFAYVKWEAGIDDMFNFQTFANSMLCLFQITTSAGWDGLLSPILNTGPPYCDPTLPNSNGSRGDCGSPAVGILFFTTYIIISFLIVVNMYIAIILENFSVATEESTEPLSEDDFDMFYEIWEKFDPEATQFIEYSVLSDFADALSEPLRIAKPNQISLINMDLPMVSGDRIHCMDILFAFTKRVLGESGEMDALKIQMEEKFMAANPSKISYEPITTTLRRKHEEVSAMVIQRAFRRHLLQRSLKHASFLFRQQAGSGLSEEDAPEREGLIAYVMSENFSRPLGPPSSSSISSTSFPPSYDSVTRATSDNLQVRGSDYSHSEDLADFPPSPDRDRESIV

hNav1.7, sequence (Q15858 whole entry, looked up): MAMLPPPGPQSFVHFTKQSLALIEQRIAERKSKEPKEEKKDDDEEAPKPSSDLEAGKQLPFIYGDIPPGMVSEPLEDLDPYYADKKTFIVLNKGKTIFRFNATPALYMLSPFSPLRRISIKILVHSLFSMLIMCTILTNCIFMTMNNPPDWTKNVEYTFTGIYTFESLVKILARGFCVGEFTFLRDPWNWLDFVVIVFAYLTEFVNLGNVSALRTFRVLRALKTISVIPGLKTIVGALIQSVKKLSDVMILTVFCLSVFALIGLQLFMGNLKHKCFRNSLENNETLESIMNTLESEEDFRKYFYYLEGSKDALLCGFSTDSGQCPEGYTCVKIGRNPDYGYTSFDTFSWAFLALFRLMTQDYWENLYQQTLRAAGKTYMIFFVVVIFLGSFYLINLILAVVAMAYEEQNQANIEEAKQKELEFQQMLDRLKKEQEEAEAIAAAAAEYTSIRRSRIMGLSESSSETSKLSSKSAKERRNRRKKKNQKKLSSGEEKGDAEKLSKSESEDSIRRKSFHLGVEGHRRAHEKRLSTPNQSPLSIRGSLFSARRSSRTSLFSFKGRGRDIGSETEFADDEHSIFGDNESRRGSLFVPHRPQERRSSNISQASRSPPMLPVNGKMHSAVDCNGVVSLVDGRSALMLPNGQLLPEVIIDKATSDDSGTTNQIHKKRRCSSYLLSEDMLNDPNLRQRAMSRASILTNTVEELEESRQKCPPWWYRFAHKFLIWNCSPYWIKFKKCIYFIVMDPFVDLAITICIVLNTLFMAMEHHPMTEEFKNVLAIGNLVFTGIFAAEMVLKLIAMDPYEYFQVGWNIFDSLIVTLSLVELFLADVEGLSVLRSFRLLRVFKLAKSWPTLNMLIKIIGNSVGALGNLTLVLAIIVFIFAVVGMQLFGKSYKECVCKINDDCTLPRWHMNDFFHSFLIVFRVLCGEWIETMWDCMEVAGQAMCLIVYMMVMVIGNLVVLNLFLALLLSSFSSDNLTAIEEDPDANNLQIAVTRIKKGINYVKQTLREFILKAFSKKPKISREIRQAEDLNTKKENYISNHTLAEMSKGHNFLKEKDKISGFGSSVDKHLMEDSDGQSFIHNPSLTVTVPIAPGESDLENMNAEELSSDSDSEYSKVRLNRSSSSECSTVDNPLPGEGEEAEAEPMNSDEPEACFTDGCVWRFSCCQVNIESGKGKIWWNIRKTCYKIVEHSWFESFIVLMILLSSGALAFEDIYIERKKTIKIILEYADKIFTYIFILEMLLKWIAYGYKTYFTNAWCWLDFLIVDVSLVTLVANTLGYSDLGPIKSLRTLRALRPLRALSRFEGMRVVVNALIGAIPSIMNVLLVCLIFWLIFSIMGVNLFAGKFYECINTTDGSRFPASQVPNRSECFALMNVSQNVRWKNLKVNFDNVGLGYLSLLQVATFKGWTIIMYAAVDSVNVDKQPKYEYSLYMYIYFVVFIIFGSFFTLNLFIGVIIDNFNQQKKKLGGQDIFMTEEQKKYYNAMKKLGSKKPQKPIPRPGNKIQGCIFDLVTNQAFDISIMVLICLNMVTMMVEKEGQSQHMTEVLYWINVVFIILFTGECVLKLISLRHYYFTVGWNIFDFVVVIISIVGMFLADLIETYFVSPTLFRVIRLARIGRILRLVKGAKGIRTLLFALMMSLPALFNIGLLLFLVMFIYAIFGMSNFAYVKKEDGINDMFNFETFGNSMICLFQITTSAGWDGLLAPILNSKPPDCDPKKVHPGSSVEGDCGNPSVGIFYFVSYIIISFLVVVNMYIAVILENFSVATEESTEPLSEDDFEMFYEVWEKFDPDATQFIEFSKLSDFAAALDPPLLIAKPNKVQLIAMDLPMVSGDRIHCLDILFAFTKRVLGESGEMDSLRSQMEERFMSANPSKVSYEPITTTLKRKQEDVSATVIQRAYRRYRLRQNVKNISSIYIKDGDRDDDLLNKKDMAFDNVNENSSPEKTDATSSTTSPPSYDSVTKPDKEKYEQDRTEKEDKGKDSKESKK

## CC[C@@H]1NC(=O)[C@@H]2CSSC[C@@H](C(=O)N[C@@H](CCCCN)C(=O)N[C@@H](Cc3ccc(O)cc3)C(=O)N[C@H](C(=O)N[C@@H](Cc3ccccc3)C(N)=O)C(C)C)NC(=O)[C@H](Cc3c[nH]c4ccccc34)NC(=O)[C@H](CCCCN)NC(=O)[C@H](Cc3c[nH]cn3)NC(=O)[C@H]([C@@H](C)O)NC(=O)[C@H](CCCNC(=N)N)NC(=O)[C@H](CO)NC(=O)[C@H](CSSC[C@H](NC(=O)[C@H](CCCCN)NC(=O)[C@H](CCCNC(=N)N)NC(=O)[C@H](CCSC)NC(=O)[C@H](Cc3ccccc3)NC(=O)CNC(=O)[C@H](CC(C)C)NC(=O)[C@H](CC)NC(=O)[C@@H](N)CC(=O)O)C(=O)N[C@@H]([C@@H](C)CC)C(=O)N3CCC[C@H]3C(=O)N[C@@H](CC(=O)O)C(=O)N[C@@H](CC(N)=O)C(=O)N[C@@H](CC(=O)O)C(=O)N[C@@H](CCCCN)C(=O)N2)NC(=O)[C@H](C(C)C)NC(=O)[C@H](CC(C)C)NC(=O)[C@H](CC(N)=O)NC(=O)[C@@H]2CCCN2C(=O)[C@H](CCCNC(=N)N)NC1=O [[2-Abu2,17]GpTx-1(1-34)] (H-D[Abu]LGFMRKCIPDNDKC[Abu]RPNLVCSRTHKWCKYVF-NH2; disulfide 9-23, 16-30)
hNav1.7
  IC50: 0.021 µM
hNav1.5
  IC50: 10 µM

## CC[C@H](C)[C@@H]1NC(=O)[C@@H]2CSSC[C@@H]3NC(=O)[C@H](C(C)C)NC(=O)[C@H](CC(C)C)NC(=O)[C@H](CC(N)=O)NC(=O)[C@@H]4CCCN4C(=O)[C@H](CCCNC(=N)N)NC(=O)[C@H](CSSC[C@H](NC(=O)[C@@H](N)CC(=O)O)C(=O)N[C@@H](CC(C)C)C(=O)NCC(=O)N[C@@H](Cc4ccccc4)C(=O)N[C@@H](CCSC)C(=O)N[C@@H](CCCNC(=N)N)C(=O)N[C@@H](CCCCN)C(=O)N2)NC(=O)[C@H](CSSC[C@@H](C(=O)N[C@@H](CCCCN)C(=O)N[C@@H](Cc2ccc(O)cc2)C(=O)N[C@@H](Cc2c[nH]c4ccccc24)C(=O)N[C@@H](Cc2ccccc2)C(N)=O)NC(=O)[C@H](Cc2c[nH]c4ccccc24)NC(=O)[C@H](CCCCN)NC(=O)[C@H](Cc2c[nH]cn2)NC(=O)[C@H]([C@@H](C)O)NC(=O)[C@H](CCCNC(=N)N)NC(=O)[C@H](CO)NC3=O)NC(=O)[C@H](CCCCN)NC(=O)[C@H](CC(=O)O)NC(=O)[C@H](CC(N)=O)NC(=O)[C@H](CC(=O)O)NC(=O)[C@@H]2CCCN2C1=O [[Trp33]GpTx-1(1-34)] (H-DCLGFMRKCIPDNDKCCRPNLVCSRTHKWCKYWF-NH2; disulfide 2-17, 9-23, 16-30)
hNav1.7
  IC50: 0.018 µM
hNav1.5
  IC50: 2.35 µM

## CC[C@H](C)[C@@H]1NC(=O)[C@@H]2CSSC[C@@H]3NC(=O)[C@H](Cc4ccc(O)cc4)NC(=O)[C@H](CC(C)C)NC(=O)[C@H](CC(N)=O)NC(=O)[C@@H]4CCCN4C(=O)[C@H](CCCNC(=N)N)NC(=O)[C@H](CSSC[C@H](NC(=O)[C@@H](N)CC(=O)O)C(=O)N[C@@H](CC(C)C)C(=O)NCC(=O)N[C@@H](Cc4ccccc4)C(=O)N[C@@H](CCSC)C(=O)N[C@@H](CCCNC(=N)N)C(=O)N[C@@H](CCCCN)C(=O)N2)NC(=O)[C@H](CSSC[C@@H](C(=O)N[C@@H](CCCCN)C(=O)N[C@@H](Cc2ccc(O)cc2)C(=O)N[C@H](C(=O)N[C@@H](Cc2ccccc2)C(N)=O)C(C)C)NC(=O)[C@H](Cc2c[nH]c4ccccc24)NC(=O)[C@H](CCCCN)NC(=O)[C@H](Cc2c[nH]cn2)NC(=O)[C@H]([C@@H](C)O)NC(=O)[C@H](CCCNC(=N)N)NC(=O)[C@H](CO)NC3=O)NC(=O)[C@H](CCCCN)NC(=O)[C@H](CC(=O)O)NC(=O)[C@H](CC(N)=O)NC(=O)[C@H](CC(=O)O)NC(=O)[C@@H]2CCCN2C1=O [[Tyr22]GpTx-1(1-34)] (H-DCLGFMRKCIPDNDKCCRPNLYCSRTHKWCKYVF-NH2; disulfide 2-17, 9-23, 16-30)
hNav1.7
  IC50: 0.018 µM
hNav1.5
  IC50: > 10 µM

## CC[C@H](C)[C@@H]1NC(=O)[C@@H]2CSSC[C@@H]3NC(=O)[C@H](Cc4ccccn4)NC(=O)[C@H](CC(C)C)NC(=O)[C@H](CC(N)=O)NC(=O)[C@@H]4CCCN4C(=O)[C@H](CCCNC(=N)N)NC(=O)[C@H](CSSC[C@H](NC(=O)[C@@H](N)CC(=O)O)C(=O)N[C@@H](CC(C)C)C(=O)NCC(=O)N[C@@H](Cc4ccccc4)C(=O)N[C@@H](CCSC)C(=O)N[C@@H](CCCNC(=N)N)C(=O)N[C@@H](CCCCN)C(=O)N2)NC(=O)[C@H](CSSC[C@@H](C(=O)N[C@@H](CCCCN)C(=O)N[C@@H](Cc2ccc(O)cc2)C(=O)N[C@H](C(=O)N[C@@H](Cc2ccccc2)C(N)=O)C(C)C)NC(=O)[C@H](Cc2c[nH]c4ccccc24)NC(=O)[C@H](CCCCN)NC(=O)[C@H](Cc2c[nH]cn2)NC(=O)[C@H]([C@@H](C)O)NC(=O)[C@H](CCCNC(=N)N)NC(=O)[C@H](CO)NC3=O)NC(=O)[C@H](CCCCN)NC(=O)[C@H](CC(=O)O)NC(=O)[C@H](CC(N)=O)NC(=O)[C@H](CC(=O)O)NC(=O)[C@@H]2CCCN2C1=O [[2PAL22]GpTx-1(1-34)] (H-DCLGFMRKCIPDNDKCCRPNL[2Pal]CSRTHKWCKYVF-NH2; disulfide 2-17, 9-23, 16-30)
hNav1.7
  IC50: 0.007 µM
hNav1.5
  IC50: 16 µM

## CC[C@H](C)[C@@H]1NC(=O)[C@@H]2CSSC[C@@H]3NC(=O)[C@H](C(C)C)NC(=O)[C@H](CC(C)C)NC(=O)[C@H](CC(N)=O)NC(=O)[C@@H]4CCCN4C(=O)[C@H](CCCNC(=N)N)NC(=O)[C@H](CSSC[C@H](NC(=O)[C@@H](N)CC(=O)O)C(=O)N[C@@H](CC(C)C)C(=O)N[C@@H](CCCNC(=N)N)C(=O)N[C@@H](CCSC)C(=O)N[C@@H](CCSC)C(=O)N[C@@H](CCCNC(=N)N)C(=O)N[C@@H](CCCCN)C(=O)N2)NC(=O)[C@H](CSSC[C@@H](C(=O)N[C@@H](CCCCN)C(=O)N[C@@H](Cc2ccc(O)cc2)C(=O)N[C@H](C(=O)N[C@@H](Cc2ccccc2)C(N)=O)C(C)C)NC(=O)[C@H](Cc2c[nH]c4ccccc24)NC(=O)[C@H](CCCCN)NC(=O)[C@H](Cc2c[nH]cn2)NC(=O)[C@H]([C@@H](C)O)NC(=O)[C@H](CCCNC(=N)N)NC(=O)[C@H](CO)NC3=O)NC(=O)[C@H](CCCCN)NC(=O)[C@H](CC(=O)O)NC(=O)[C@H](CC(N)=O)NC(=O)[C@H](CC(=O)O)NC(=O)[C@@H]2CCCN2C1=O [[Arg4;Met5]GpTx-1(1-34)] (H-DCLRMMRKCIPDNDKCCRPNLVCSRTHKWCKYVF-NH2; disulfide 2-17, 9-23, 16-30)
hNav1.7
  IC50: 0.029 µM
hNav1.5
  IC50: 13.2 µM

## CC[C@H](C)[C@@H]1NC(=O)[C@@H]2CSSC[C@@H]3NC(=O)[C@H](C(C)C)NC(=O)[C@H](CC(C)C)NC(=O)[C@H](CC(N)=O)NC(=O)[C@@H]4CCCN4C(=O)[C@H](CCCNC(=N)N)NC(=O)[C@H](CSSC[C@H](NC(=O)[C@@H](N)CC(=O)O)C(=O)N[C@@H](CC(C)C)C(=O)NCC(=O)N[C@@H](Cc4ccc(OC)c(OC)c4)C(=O)N[C@@H](Cc4ccccc4)C(=O)N[C@@H](CCCNC(=N)N)C(=O)N[C@@H](CCCCN)C(=O)N2)NC(=O)[C@H](CSSC[C@@H](C(=O)N[C@@H](CCCCN)C(=O)N[C@@H](Cc2ccc(O)cc2)C(=O)N[C@H](C(=O)N[C@@H](Cc2ccccc2)C(N)=O)C(C)C)NC(=O)[C@H](Cc2c[nH]c4ccccc24)NC(=O)[C@H](CCCCN)NC(=O)[C@H](Cc2c[nH]cn2)NC(=O)[C@H]([C@@H](C)O)NC(=O)[C@H](CCCNC(=N)N)NC(=O)[C@H](CO)NC3=O)NC(=O)[C@H](CCCCN)NC(=O)[C@H](CC(=O)O)NC(=O)[C@H](CC(N)=O)NC(=O)[C@H](CC(=O)O)NC(=O)[C@@H]2CCCN2C1=O [[DiMeO-F5;Phe6]GpTx-1(1-34)] (H-DCLG[Phe(3,4-(OMe)2)]FRKCIPDNDKCCRPNLVCSRTHKWCKYVF-NH2; disulfide 2-17, 9-23, 16-30)
hNav1.7
  IC50: 0.033 µM
hNav1.5
  IC50: > 10 µM

## CSCC[C@@H]1NC(=O)[C@H](C)NC(=O)CNC(=O)[C@H](CC(C)C)NC(=O)[C@@H](NC(=O)[C@@H](N)CC(=O)O)CSSC[C@@H]2NC(=O)[C@@H]3CSSC[C@@H](C(=O)N[C@@H](CCCCN)C(=O)N[C@@H](Cc4ccc(O)cc4)C(=O)N[C@H](C(=O)N[C@@H](Cc4ccccc4)C(N)=O)C(C)C)NC(=O)[C@H](Cc4c[nH]c5ccccc45)NC(=O)[C@H](CCCCN)NC(=O)[C@H](Cc4c[nH]cn4)NC(=O)[C@H]([C@@H](C)O)NC(=O)[C@H](CCCNC(=N)N)NC(=O)[C@H](CO)NC(=O)[C@H](CSSC[C@H](NC(=O)[C@H](CCCCN)NC(=O)[C@H](CCCNC(=N)N)NC1=O)C(=O)N[C@@H](CC(=O)O)C(=O)N1CCC[C@H]1C(=O)N[C@@H](CC(=O)O)C(=O)N[C@@H](CC(N)=O)C(=O)N[C@@H](CC(=O)O)C(=O)N[C@@H](CCCCN)C(=O)N3)NC(=O)[C@H](C(C)C)NC(=O)[C@H](CC(C)C)NC(=O)[C@H](CC(N)=O)NC(=O)[C@@H]1CCCN1C(=O)[C@H](CCCNC(=N)N)NC2=O [[Ala5;Asp10]GpTx-1(1-34)] (H-DCLGAMRKCDPDNDKCCRPNLVCSRTHKWCKYVF-NH2; disulfide 2-17, 9-23, 16-30)
hNav1.7
  IC50: 0.05 µM
hNav1.5
  IC50: > 10 µM

## CC[C@H](C)[C@@H]1NC(=O)[C@@H]2CSSC[C@@H]3NC(=O)[C@H](C(C)C)NC(=O)[C@H](CC(C)C)NC(=O)[C@H](CC(N)=O)NC(=O)[C@@H]4CCCN4C(=O)[C@H](CCCNC(=N)N)NC(=O)[C@H](CSSC[C@H](NC(=O)[C@@H](N)CC(=O)O)C(=O)N[C@@H](CC(C)C)C(=O)NCC(=O)N[C@@H](C)C(=O)N[C@@H](CCSC)C(=O)N[C@@H](CCCNC(=N)N)C(=O)N[C@@H](CCCCN)C(=O)N2)NC(=O)[C@H](CSSC[C@@H](C(=O)N[C@@H](CCCCN)C(=O)N[C@@H](Cc2ccc(O)cc2)C(=O)N[C@H](C(=O)N[C@@H](Cc2ccccc2)C(N)=O)C(C)C)NC(=O)[C@H](Cc2c[nH]c4ccccc24)NC(=O)[C@H](CCCCNC(N)=O)NC(=O)[C@H](Cc2c[nH]cn2)NC(=O)[C@H]([C@@H](C)O)NC(=O)[C@H](CCCNC(=N)N)NC(=O)[C@H](CO)NC3=O)NC(=O)[C@H](CCCCN)NC(=O)[C@H](CC(=O)O)NC(=O)[C@H](CC(N)=O)NC(=O)[C@H](CC(=O)O)NC(=O)[C@@H]2CCCN2C1=O [[Ala5;HCit28]GpTx-1(1-34)] (H-DCLGAMRKCIPDNDKCCRPNLVCSRTH[hCit]WCKYVF-NH2; disulfide 2-17, 9-23, 16-30)
hNav1.7
  IC50: 0.025 µM
hNav1.5
  IC50: > 10 µM
